Measured values from patent US20220183937A1, “METHOD FOR IMPROVING THE PERFORMANCE OF A FRAGRANCE OR A FRAGRANCE MIXTURE” (SYMRISE AG, priority 2019, published 2022).
Counter-ions that a name gives are not always drawn.

Tests used:
[1] = LogP of fragrance raw materials
[2] = Boiling point of fragrance raw materials
[3] = Example 1, fragrances for long lasting performance, head range 1.00 a 230.0
[4] = Example 2, fragrances for thermo boost performance, head range 230.1 a 300.0
[5] = Example 1, fragrances for long lasting performance, head range 1.00 a 3.00
[6] = Example 2, fragrances for thermo boost performance, head range 0.00 a 3.00

In the case of `O=CCc1ccccc1`, the logP [1] is reported as 1.54 and the “Boiling Point” value [2, 3] is reported as 201.5 °C.

In the case of `COC(Cc1ccccc1)OC`, the logP [1] is reported as 1.93 and the “Boiling Point” value [2, 3] is reported as 219.8 °C.

With `CC1(C)[C@@H]2CC[C@@]1(C)[C@H](O)C2` (racemic) [ISOBORNEOL] the “Boiling Point” value [2, 3] was 210 °C.

For `COc1ccc(C(C)=O)cc1` [ACETANISOLE CRYST., ACETANISOLE], the “Boiling Point” value [2, 3] was 229.5 °C.

For `CC(=O)c1ccccc1` [ACETOPHENONE], the “Boiling Point” value [2, 3] was 189.8 °C.

For `CC(=O)c1nccs1` [ACETYL THIAZOLE-2], the “Boiling Point” value [2, 3] was 209 °C.

With `CCCCCC1CCC(=O)O1` (centres unmarked) [ALDEHYDE C18 SO-CALLED] the “Boiling Point” value [2, 4] was 265.5 °C.

In the case of `CCCCCCCC=O` [ALDEHYDE C 8], the logP [1, 5] is reported as 2.78 and the “Boiling Point” value [2, 3] is reported as 176 °C.

With `C=CCOC(=O)COCCC(C)C` [ALLYL AMYL GLYCOLATE] the “Boiling Point” value [2, 3] was 217.7 °C.

With `CCCCCOC(C)=O` [AMYL ACETATE N] the “Boiling Point” value [2, 3] was 148.4 °C.

In the case of `COc1ccc(C=O)cc1` [ANISIC ALDEHYDE PURE, ANISIC ALDEHYDE], the “Boiling Point” value [2, 3] is reported as 221.6 °C.

With `CC(=O)OCc1ccccc1` [BENZYL ACETATE] the “Boiling Point” value [2, 3] was 215.6 °C.

With `O=COCc1ccccc1` [BENZYL FORMATE] the logP [1] was 1.53 and the “Boiling Point” value [2, 3] was 197.8 °C.

For `O=Cc1ccccc1` [BE[…], BENZALDEHYDE], the logP (physchem) was 1.71 and the “Boiling Point” value [2, 3] was 181.2 °C.

For `CCCCOC(C)=O` [BUTYL ACETATE], the logP [1] was 1.85 and the “Boiling Point” value [2, 3] was 125.8 °C.

With `O=c1ccc2ccccc2o1` [COUMARIN] the “Boiling Point” value [2, 4] was 290.7 °C.

With `Cc1ccc(O)cc1` [CRESOL PARA] the logP [1, 5] was 2.06 and the “Boiling Point” value [2, 3] was 190.8 °C.

In the case of `COc1ccc(C)cc1` [CRESYL METHYL ETHER PARA], the “Boiling Point” value [2, 3] is reported as 170.8 °C.

With `C=CCOC(=O)COC1CCCCC1` [CYCLOGALBANAT®] the “Boiling Point” value [2, 4] was 254.9 °C.

In the case of `CC(=O)OC1CCCCC1` [CYCLOHEXYL ACETATE], the logP [1] is reported as 2.64 and the “Boiling Point” value [2, 3] is reported as 179.4 °C.

For `CCCCCC1CCCC(=O)O1` (centres unmarked) [DECALACTONE DELTA], the logP [1, 6] was 2.57 and the “Boiling Point” value [2, 4] was 283.2 °C.

In the case of `CCCCCCC1CCC(=O)O1` (centres unmarked) [DECALACTONE GAMMA], the logP [1, 6] is reported as 2.57 and the “Boiling Point” value [2, 4] is reported as 281.7 °C.

With `CCOC(=O)c1ccccc1` [ETHYL BENZOATE] the logP (physchem) was 2.32 and the “Boiling Point” value [2, 3] was 215.6 °C.

In the case of `CCCC(=O)OCC` [ETHYL BUTYRATE], the logP [1] is reported as 1.85 and the “Boiling Point” value [2, 3] is reported as 125.8 °C.

For `CCCCCC(=O)OCC` [ETHYL CAPROATE], the “Boiling Point” value [2, 3] was 170.1 °C.

For `CCc1occc(=O)c1O` [ETHYL MALTOL], the logP [1, 6] was 0.3 and the “Boiling Point” value [2, 4] was 283.4 °C.

With `CCOC(=O)COc1ccccc1` [ETHYL PHENOXY ACETATE] the “Boiling Point” value [2, 4] was 252.8 °C.

In the case of `CCOC(=O)Cc1ccccc1` [ETHYL PHENYL ACETATE], the logP (physchem) is reported as 2.57 and the “Boiling Point” value [2, 4] is reported as 234.3 °C.

With `CCOC(=O)CC` [ETHYL PROPIONATE] the logP [1] was 1.36 and the “Boiling Point” value [2, 3] was 102.3 °C.

Molecule `CCOc1cc(C=O)ccc1O` [ETHYL VANILLIN] has a logP (physchem) of 1.55.

In the case of `CC12CCC(C1)C(C)(C)C2O` (centres unmarked) [FENCHOL], the “Boiling Point” value [2, 3] is reported as 210 °C.

With `O=Cc1ccc2c(c1)OCO2` [HELIOTROPIN] the logP [1, 6] was 1.77 and the “Boiling Point” value [2, 4] was 257 °C.

For `CCCC1CCC(=O)O1` (centres unmarked) [HEPTALACTONE GAMMA], the logP [1, 6] was 1.09 and the “Boiling Point” value [2, 4] was 230.3 °C.

With `CC(=O)C1CCCC(C)(C)C1` (centres unmarked) [HERBAC] the “Boiling Point” value [2, 3] was 197.4 °C.

In the case of `CCC/C=C/C=O` [HEXENAL TRANS-2], the logP [1, 5] is reported as 1.58 and the “Boiling Point” value [2, 3] is reported as 139.2 °C.

In the case of `CC/C=C\CCOC(C)=O` [HEXENYL ACETATE CIS-3], the “Boiling Point” value [2, 3] is reported as 176.6 °C.

In the case of `CCCCCCOC(C)=O` [HEXYL ACETATE], the “Boiling Point” value [2, 3] is reported as 170.1 °C.

In the case of `COC(OC)C(C)c1ccccc1` (centres unmarked) [HYDRATROPIC ALDEHYDE DIMETH.ACET], the “Boiling Point” value [2, 3] is reported as 227.2 °C.

With `c1ccc2[nH]ccc2c1` [INDOLE FF, INDOLE] the logP (physchem) was 2.05 and the “Boiling Point” value [2, 4] was 250 °C.

In the case of `CC(=O)OCCC(C)C` [ISOAMYL ACETATE], the logP [1] is reported as 2.26 and the “Boiling Point” value [2, 3] is reported as 134.9 °C.

In the case of `CC(=O)OCC(C)C` [ISOBUTYL ACETATE], the “Boiling Point” value [2, 3] is reported as 111.7 °C.

With `COc1nccnc1CC(C)C` [ISOBUTYL METHOXYPYRAZINE-3,2] the “Boiling Point” value [2, 4] was 236.5 °C.

With `CC=Cc1ccc(O)c(OC)c1` [ISOEUGENOL] the logP [1] was 2.65 and the “Boiling Point” value [2, 4] was 270.6 °C.

With `COc1nccnc1C(C)C` [ISOPROPYL METHOXYPYRAZINE-2,3] the “Boiling Point” value [2, 3] was 217.8 °C.

For `Cc1csc(C(C)C)n1` [ISOPROPYL METHYL THIAZOLE-2,4], the “Boiling Point” value [2, 3] was 198 °C.

For `CC/C=C\CCOC(C)OCC` (centres unmarked) [LEAF ACETAL], the logP [1, 5] was 2.95 and the “Boiling Point” value [2, 3] was 201.4 °C.

With `CC/C=C\CCOC(=O)OC` [LEAFOVERT®] the logP [1, 5] was 2.47 and the “Boiling Point” value [2, 3] was 213 °C.

In the case of `CC1=CC(C)C(C=O)CC1` (centres unmarked) [LIGUSTRAL], the “Boiling Point” value [2, 3] is reported as 200.5 °C.

In the case of `CCCC(C)C(=O)OCC` (centres unmarked) [MANZANATE], the logP [1, 5] is reported as 2.76 and the “Boiling Point” value [2, 3] is reported as 157.1 °C.

With `CC(=O)c1ccc(C)cc1` [METHYL ACETOPHENONE PARA] the logP [1, 5] was 2.22 and the “Boiling Point” value [2, 3] was 209.7 °C.

For `COC(=O)c1ccccc1N` [METHYL ANTHRANILATE (=130085), METHYL ANTHRANILATE], the logP (physchem) was 2.26 and the “Boiling Point” value [2, 4] was 263.6 °C.

In the case of `COC(=O)c1ccccc1` [METHYL BENZOATE], the logP [1] is reported as 1.83 and the “Boiling Point” value [2, 3] is reported as 195.9 °C.

With `CCCCCC(=O)OC` [METHYL CAPROATE] the logP [1] was 2.34 and the “Boiling Point” value [2, 3] was 148.4 °C.

With `CCOc1cc(COC)ccc1O` [METHYL DIANTILIS] the logP [1, 6] was 1.61 and the “Boiling Point” value [2, 4] was 282.4 °C.

With `COc1cc(C)ccc1O` [METHYL GUAIACOL-4] the “Boiling Point” value [2, 4] was 230.4 °C.

For `CCCCCC#CC(=O)OC` [METHYL HEPTIN CARBONATE], the logP [1, 5] was 2.6 and the “Boiling Point” value [2, 3] was 205.3 °C.

In the case of `COC(=O)Cc1ccccc1` [METHYL PHENYLACETATE], the logP (physchem) is reported as 2.08 and the “Boiling Point” value [2, 3] is reported as 215.6 °C.

In the case of `COC(=O)c1ccccc1O` [METHYL SALICYLATE PF, METHYL SALICYLATE], the logP [1] is reported as 2.6 and the “Boiling Point” value [2, 4] is reported as 252.2 °C.

With `CC(=O)CCC=C(C)C` [METIL-6-HEPTEN-5-ONA-2 SUPRA, METIL-6-HEPTEN-5-ONA-2] the “Boiling Point” value [2, 3] was 164.4 °C.

With `CC(C)(CO)Cc1ccccc1` [MUGUETALCOHOL] the “Boiling Point” value [2, 4] was 260.6 °C.

For `CC/C=C\CC/C=C/C=O` [NONADIENAL TRANS,CIS-2,6], the “Boiling Point” value [2, 3] was 208.7 °C.

In the case of `CC/C=C/CC/C=C/CO` [NONADIENOL-2,6], the logP [1, 6] is reported as 2.87 and the “Boiling Point” value [2, 4] is reported as 231.6 °C.

With `CCCCC1CCCC(=O)O1` (centres unmarked) [NONALACTONE DELTA] the logP [1, 6] was 2.08 and the “Boiling Point” value [2, 4] was 267 °C.

With `CCCC1CCCC(=O)O1` (centres unmarked) [OCTALACTONE DELTA] the “Boiling Point” value [2, 4] was 250 °C.

For `CCCCC1CCC(=O)O1` (centres unmarked) [OCTALACTONE GAMMA], the “Boiling Point” value [2, 4] was 248.4 °C.

For `CCCCCCC(C)=O` [OCTANONE-2], the “Boiling Point” value [2, 3] was 163.6 °C.

In the case of `CCCCCC(=O)CC` [OCTANONE-3], the “Boiling Point” value [2, 3] is reported as 163.6 °C.

For `OCCc1ccccc1` [PHENYLETHYL ALCOHOL BA FREE, PHENYLETHYL ALCOHOL], the logP [1] was 1.57 and the “Boiling Point” value [2, 3] was 224.9 °C.

For `O=COCCc1ccccc1` [PHENYLETHYL FORMATE], the logP [1] was 2.02 and the “Boiling Point” value [2, 3] was 217.3 °C.

With `CC(=O)OCC=C(C)C` [PRENYL ACETATE] the logP [1] was 2.18 and the “Boiling Point” value [2, 3] was 149.2 °C.

With `CC(=O)OC(C)c1ccccc1` (centres unmarked) [STYRALYL ACETATE] the “Boiling Point” value [2, 3] was 223.1 °C.

In the case of `CC(CC=O)c1ccccc1` (centres unmarked) [TRIFERNAL], the logP [1, 5] is reported as 2.45 and the “Boiling Point” value [2, 3] is reported as 228.4 °C.

For `COc1cc(C=O)ccc1O` [VANILLIN], the logP [1] was 1.05 and the “Boiling Point” value [2, 4] was 274.3 °C.

With `CC1=CC(C)C(C=O)CC1` (centres unmarked) [VERTOCITRAL] the “Boiling Point” value [2, 3] was 200.5 °C.

For ISOOCTANONE, the logP [1, 5] was 2.15 and the “Boiling Point” value [2, 3] was 150.5 °C.

With MENTHONE L/ISOMENTHONE D the logP [1, 5] was 2.87 and the “Boiling Point” value [2, 3] was 213 °C.

With “MENTHONE/ISOMENTHONE [MENTHONE/ISOMENTHONE RAC.]” the logP [1, 5] was 2.87 and the “Boiling Point” value [2, 3] was 213 °C.
